Data from patent US10442835B2, “Water-soluble rapamycin derivatives” (Zhejiang Hisun Pharmaceutical Co., Ltd., priority 2016, dated 2019).
≈ marks a conversion by molar mass, not a printed value. Where two headings read alike, the source gives them in different places.

Experiments:
[1] = Test for solubility in water; assay type: physicochemical; details: for solubility: water, thermodynamic from solid
Experimental: The experiments herein can measure the dissolution profile in water of the compounds according to the present invention.
To a 25 ml volumetric flask, 25 mg everolimus was added, and diluted with acetonitrile to volume. The mixture was shaken till all the solid dissolved, obtaining 1 mg/mL everolimus solution in acetonitrile.
1 mg/mL everolimus solution in acetonitrile was added to a 10 ml volumetric flask, and was diluted with acetonitrile by 2 times, 10 times, 100 times and 1000 times, so as to obtain everolimus solutions in acetonitrile with a concentration of 0.5 mg/mL, 0.1 mg/mL, 0.01 mg/mL and 0.001 mg/mL, respectively.
Each of the three mixtures was shaken till the solid in the volumetric flask stopped to dissolve. Before analyzed by HPLC, 1 mL of each solution was filtrated via a 0.22 μm filter. The solubility of the compounds was calculated from the standard curve using the peak area of the main peak obtained.
Based on the same study method, comparisons of the solubility between sirolimus/temsirolimus and the compounds modified by glutathione are carried out, respectively.

[2] = test system: human liver cancer cell HepG2; test: In vitro activity assay, growth of HepG2 (thymidine incorporation); assay type: cell-based; details: 48 h
Excerpt: (§1) The anti-tumor activity and toxicity of the compounds according to the present invention can be assayed through standard operational procedures of pharmacological experiment. The experiments carried out herein can test the inhibitory effect of the compounds according to the present invention on the growth of human liver cancer cell HepG2, lung cancer cell NCI460, prostate cancer cell DU145, prostate cancer cell PC3, and human breast cancer cell MDA-MB-435. The operational procedure used is briefly described below by taking the inhibitory activity assay against human liver cancer cell HepG2 as an example.
Human liver cancer cell HepG2 grew in the follow medium:
Preparation of the growth medium: BRL minimum essential medium with Earle Salts (500 mL), with the addition of the following agents:
(§2) The operational procedure for the assay is as follows:
(§3) 1. Cells after being trypsinized were inoculated in 96-well plates at a concentration of 10^4 cells/well, and allowed to grow in a medium with a final volume of 200 μL. The 96-well plates after inoculation are allowed to stand for 24 hours at 37° C., in order to allow the cells to adhere to the surface of the wells.
(§4) 2. The medium was removed by carefully pipetting without disturbing the cell monolayer. 200 μL Fresh medium was added into each well. It is arranged to make it possible to collect samples from enough wells to run the experiments in triplicate.
(§5) 3. The compounds to be tested according to the present invention were dissolved into 10 μL phosphate buffered solution (PBS) and incubated for 48 h at 37° C.
(§6) 4. In the last 6 h of incubation, cells in each well of the 96-well plates were labeled by 1 microcurie T thymidine (New England Nuclear thymidine), by adding 10 μL PBS containing 1 microcurie T thymidine (which was added into the PBS on the day of collecting the samples for test). The 96-well plates were then returned to the incubator and incubated for the last 6 h.
(§7) 5. Without disturbing the cell monolayer, the radioactive medium was removed by pipetting. Then 50 μL of BRL 10×trypsin was added to each well, followed by incubation at 37° C. for 10 minutes or until the cell monolayer was detached from the bottom (or the wall) of each well. Samples were collected on glass-fiber diskettes using a Skatron 96-well cell harvester. Cells depositing on the glass-fiber diskettes were counted in a Wallac Betaplate counter.

[3] = test system: prostate cancer cell DU145; test: In vitro activity assay, growth of DU145; assay type: cell-based; details: Homo sapiens; DU-145; 48 h
Excerpt: as §1, §2, §3, §4, §5, §6, §7

[4] = test system: prostate cancer cell PC3; test: In vitro activity assay, growth of PC3; assay type: cell-based; details: 48 h
Excerpt: as §1, §2, §3, §4, §5, §6, §7

[5] = test system: human breast cancer cell MDA-MB-435; test: In vitro activity assay, growth of MDA-MB-435; assay type: cell-based; details: 48 h
Excerpt: as §1, §2, §3, §4, §5, §6, §7

[6] = test system: lung cancer cell NCI460; test: In vitro activity assay, growth of NCI460; assay type: cell-based; details: NCI-460, 48 h
Excerpt: as §1, §2, §3, §4, §5, §6, §7

| Structure (SMILES) | solubility [1] [µg/mL] | IC50 [2] [µM] | IC50 [3] [µM] | IC50 [4] [µM] | IC50 [5] [µM] | solubility ([1]; pure water, Table 2, compounds I-5, I-6, I-7 converted to temsirolimus, read-out: Solubility in water) [µg/mL] | increase of solubility in water as compared with sirolimus [1] | IC50 [6] [µM] | increase of solubility in water as compared with temsirolimus [1] |
| --- | --- | --- | --- | --- | --- | --- | --- | --- | --- |
| CO[C@H]1C[C@@H]2CC[C@@H](C)[C@@](O)(O2)C(=O)C(=O)N2CCCC[C@H]2C(=O)OC([C@H](C)C[C@@H]2CC[C@@H](OC(=O)CSC[C@H](NC(=O)CC[C@H](N)C(=O)O)C(=O)NCC(=O)O)[C@H](OC)C2)CC(=O)[C@H](C)/C=C(\C)[C@@H](O)[C@@H](OC)C(=O)[C@H](C)C[C@@H](C)\C=C/C=C/C=C/1C (stereo partly shown) [Compound I-3] | 470 (≈ 373 µM) | 35.188 ± 0.007 | 62.511 ± 0.01 | 31.396 ± 0.008 | 63.633 ± 0.015 | – | at least 470 times | 82.328 ± 0.011 | – |
| CO[C@H]1C[C@@H]2CC[C@@H](C)[C@@](O)(O2)C(=O)C(=O)N2CCCC[C@H]2C(=O)OC([C@H](C)C[C@@H]2CC[C@@H](OC(=O)C(C)(CO)COC(=O)CSC[C@H](NC(=O)CC[C@H](N)C(=O)O)C(=O)NCC(=O)O)[C@H](OC)C2)CC(=O)[C@H](C)/C=C(\C)[C@@H](O)[C@@H](OC)C(=O)[C@H](C)C[C@@H](C)\C=C/C=C/C=C/1C (stereo partly shown) [Compound I-5] | 580 (≈ 421 µM) | 50.213 ± 0.01 | 60.813 ± 0.011 | 38.396 ± 0.008 | 70.761 ± 0.009 | – | – | 80.53 ± 0.013 | at least 580 times |
| CO[C@H]1C[C@@H]2CC[C@@H](C)[C@@](O)(O2)C(=O)C(=O)N2CCCC[C@H]2C(=O)O[C@H]([C@H](C)C[C@@H]2CC[C@@H](O)[C@H](OC)C2)CC(=O)[C@H](C)/C=C(\C)[C@@H](O)[C@@H](OC)C(=O)[C@H](C)C[C@H](C)/C=C/C=C/C=C/1C [Sirolimus, reference compound] | < 1 | 66.254 ± 0.007 | 68.52 ± 0.009 | 42.371 ± 0.009 | 68.57 ± 0.007 | – | – | 101.36 ± 0.013 | – |
| CO[C@H]1C[C@@H]2CC[C@@H](C)[C@@](O)(O2)C(=O)C(=O)N2CCCC[C@H]2C(=O)O[C@H]([C@H](C)C[C@@H]2CC[C@@H](OC(=O)C(C)(CO)CO)[C@H](OC)C2)CC(=O)[C@H](C)/C=C(\C)[C@@H](O)[C@@H](OC)C(=O)[C@H](C)C[C@H](C)/C=C/C=C/C=C/1C [Temsirolimus, reference compound] | – | 60.337 ± 0.01 | 65.361 ± 0.015 | 47.319 ± 0.005 | 77.31 ± 0.005 | ~1 (≈ 0.971 µM) | – | 113.25 ± 0.011 | – |

Continued, in another order:

| solubility [1] [µg/mL] | IC50 [2] [µM] | IC50 [3] [µM] | IC50 [4] [µM] | IC50 [5] [µM] | solubility ([1]; pure water, Table 2, compounds I-5, I-6, I-7 converted to temsirolimus, read-out: Solubility in water) [µg/mL] | Structure (SMILES) | increase of solubility in water as compared with sirolimus [1] | IC50 [6] [µM] | increase of solubility in water as compared with temsirolimus [1] |
| --- | --- | --- | --- | --- | --- | --- | --- | --- | --- |
| 610 (≈ 379 µM) | 73.402 ± 0.007 | 93.277 ± 0.011 | 51.413 ± 0.005 | 73.283 ± 0.012 | – | CO[C@H]1C[C@@H]2CC[C@@H](C)[C@@](O)(O2)C(=O)C(=O)N2CCCC[C@H]2C(=O)OC([C@H](C)C[C@@H]2CC[C@@H](OC(=O)CSC[C@H](NC(=O)CC[C@H](N)C(=O)O)C(=O)NCC(=O)O)[C@H](OC)C2)CC(=O)[C@H](C)/C=C(\C)[C@@H](OC(=O)CSC[C@H](NC(=O)CC[C@H](N)C(=O)O)C(=O)NCC(=O)O)[C@@H](OC)C(=O)[C@H](C)C[C@@H](C)\C=C/C=C/C=C/1C (stereo partly shown) [Compound I-4] | ≥ 610 times | 122.8 ± 0.017 | – |
| 830 (≈ 401 µM) | 76.703 ± 0.012 | 82.51 ± 0.015 | 60.492 ± 0.01 | 81.31 ± 0.008 | – | CO[C@H]1C[C@@H]2CC[C@@H](C)[C@@](O)(O2)C(=O)C(=O)N2CCCC[C@H]2C(=O)OC([C@H](C)C[C@@H]2CC[C@@H](OC(=O)C(C)(COC(=O)CSC[C@H](NC(=O)CC[C@H](N)C(=O)O)C(=O)NCC(=O)O)COC(=O)CSC[C@H](NC(=O)CC[C@H](N)C(=O)O)C(=O)NCC(=O)O)[C@H](OC)C2)CC(=O)[C@H](C)/C=C(\C)[C@@H](OC(=O)CSC[C@H](NC(=O)CC[C@H](N)C(=O)O)C(=O)NCC(=O)O)[C@@H](OC)C(=O)[C@H](C)C[C@@H](C)\C=C/C=C/C=C/1C (stereo partly shown) [Compound I-7] | – | 131.26 ± 0.01 | ≥ 830 times |
